According to PubChem BioAssay (NCI):
Several values for one entry are separate records, joined by “and”; a condition that tells them apart may be missing. Equal values may be shown once.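 Cells were grown in 96-well plates and exposed to each compound for 48 hours at five concentrations; endpoints were interpolated linearly between bracketing concentrations, or set to the highest concentration if not reached. GI50 is the concentration that inhibits growth by half. TGI is the concentration that stops growth completely.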

Columns and labels:
Assay in all cases: NCI tumour cell line growth inhibition, 48 h
UACC-257 melanoma = test system: UACC-257 melanoma
SF-539 CNS = test system: SF-539 CNS
SF-295 CNS = test system: SF-295 CNS
A549 NSCLC = test system: A549 NSCLC
HCT-116 colon = test system: HCT-116 colon
RXF 393 renal = test system: RXF 393 renal
HL-60(TB) leukemia = test system: HL-60(TB) leukemia
TK-10 renal = test system: TK-10 renal
SK-MEL-5 melanoma = test system: SK-MEL-5 melanoma
HOP-62 NSCLC = test system: HOP-62 NSCLC
NCI-H226 lung = test system: NCI-H226 lung
RPMI-8226 leukemia = test system: RPMI-8226 leukemia
NCI-H23 lung = test system: NCI-H23 lung
UACC-62 melanoma = test system: UACC-62 melanoma
SK-MEL-28 melanoma = test system: SK-MEL-28 melanoma
MOLT-4 leukemia = test system: MOLT-4 leukemia
PC-3 prostate = test system: PC-3 prostate
M14 melanoma = test system: M14 melanoma
IGROV1 ovarian = test system: IGROV1 ovarian
HOP-92 NSCLC = test system: HOP-92 NSCLC
HS 578T breast = test system: HS 578T breast
SNB-19 CNS = test system: SNB-19 CNS
HCT-15 colon = test system: HCT-15 colon
OVCAR-8 ovarian = test system: OVCAR-8 ovarian
COLO 205 colon = test system: COLO 205 colon
SW-620 colon = test system: SW-620 colon
MDA-MB-231 breast = test system: MDA-MB-231 breast
A498 renal = test system: A498 renal
SNB-75 CNS = test system: SNB-75 CNS
ACHN renal = test system: ACHN renal
DU-145 prostate = test system: DU-145 prostate
CAKI-1 renal = test system: CAKI-1 renal
OVCAR-3 ovarian = test system: OVCAR-3 ovarian
MDA-N = test system: MDA-N
SN12C renal = test system: SN12C renal
OVCAR-5 ovarian = test system: OVCAR-5 ovarian
786-0 renal = test system: 786-0 renal
SK-OV-3 ovarian = test system: SK-OV-3 ovarian
SF-268 CNS = test system: SF-268 CNS
NCI-H522 lung = test system: NCI-H522 lung
LOX IMVI melanoma = test system: LOX IMVI melanoma
HT29 colon = test system: HT29 colon
EKVX NSCLC = test system: EKVX NSCLC
MDA-MB-435 = test system: MDA-MB-435
NCI/ADR-RES ovarian = test system: NCI/ADR-RES ovarian
CCRF-CEM leukemia = test system: CCRF-CEM leukemia
HCC-2998 colon = test system: HCC-2998 colon
BT-549 breast = test system: BT-549 breast
KM12 colon = test system: KM12 colon
U251 CNS = test system: U251 CNS
OVCAR-4 ovarian = test system: OVCAR-4 ovarian
T-47D breast = test system: T-47D breast
MALME-3M melanoma = test system: MALME-3M melanoma
SK-MEL-2 melanoma = test system: SK-MEL-2 melanoma

## COc1cccc2c1C(=O)c1c(O)c3c(c(O)c1C2=O)C[C@@](O)(C(=O)CO)C[C@@H]3OC1CC2C(OCN3CN2COC2C(C)OC(O[C@H]4C[C@](O)(C(=O)CO)Cc5c(O)c6c(c(O)c54)C(=O)c4c(OC)cccc4C6=O)CC23)C(C)O1 (stereo partly drawn)
UACC-257 melanoma
  GI50: 24.4 nM
  TGI: 198 nM and 381 nM and 136 nM
SF-539 CNS
  GI50: 5.53 nM
SF-295 CNS
  GI50: 31.2 nM
  TGI: 3450 nM and 1350 nM
A549 NSCLC
  GI50: 12.8 nM
  TGI: 4630 nM
HCT-116 colon
  GI50: 16.6 nM
  TGI: 537 nM and 85.6 nM
RXF 393 renal
  GI50: 14.8 nM
  TGI: 64.1 nM and 148 nM
HL-60(TB) leukemia
  GI50: 2.67 nM
TK-10 renal
  GI50: 232 nM
SK-MEL-5 melanoma
  GI50: 44.7 nM
  TGI: 236 nM and 263 nM
HOP-62 NSCLC
  GI50: 21.8 nM
  TGI: 419 nM and 2770 nM and 1230 nM
NCI-H226 lung
  GI50: 35.7 nM and 10.2 nM
RPMI-8226 leukemia
  GI50: 4.87 nM
  TGI: 11.6 nM
NCI-H23 lung
  GI50: 11.6 nM
  TGI: 209 nM and 108 nM and 21.7 nM
UACC-62 melanoma
  GI50: 5.01 nM
SK-MEL-28 melanoma
  GI50: 49.3 nM
  TGI: 574 nM and 294 nM
MOLT-4 leukemia
  TGI: 6.58 nM
PC-3 prostate
  GI50: 50.1 nM
  TGI: 935 nM and 890 nM
M14 melanoma
  GI50: 50.5 nM
  TGI: 332 nM and 381 nM
IGROV1 ovarian
  GI50: 17.6 nM
HOP-92 NSCLC
  GI50: 15.3 nM and 15.9 nM
  TGI: 381 nM and 263 nM and 506 nM
HS 578T breast
  GI50: 32.1 nM
SNB-19 CNS
  GI50: 15.2 nM
  TGI: 3200 nM
HCT-15 colon
  GI50: 118 nM and 51.7 nM
OVCAR-8 ovarian
  GI50: 17.6 nM
  TGI: 4220 nM and 1270 nM
COLO 205 colon
  GI50: 12.7 nM
  TGI: 473 nM and 312 nM
SW-620 colon
  GI50: 10.4 nM
MDA-MB-231 breast
  GI50: 48.2 nM
  TGI: 705 nM and 893 nM
A498 renal
  GI50: 3.82 nM
SNB-75 CNS
  GI50: 7.56 nM
  TGI: 66.3 nM and 34.2 nM
ACHN renal
  GI50: 8.2 nM
  TGI: 673 nM
DU-145 prostate
  GI50: 11.9 nM
CAKI-1 renal
  GI50: 17.5 nM
OVCAR-3 ovarian
  GI50: 46.7 nM and 15.4 nM
MDA-N
  GI50: 52.2 nM and 21 nM
  TGI: 229 nM and 272 nM and 131 nM
SN12C renal
  GI50: 12.1 nM
  TGI: 96.6 nM and 134 nM and 35.9 nM
OVCAR-5 ovarian
  GI50: 88.6 nM and 20.2 nM
786-0 renal
  GI50: 7.92 nM
SK-OV-3 ovarian
  GI50: 131 nM and 42.9 nM
  TGI: 25000 nM and 4710 nM
SF-268 CNS
  GI50: 6.35 nM and 12.2 nM
NCI-H522 lung
  GI50: 6.8 nM
  TGI: 160 nM and 53.8 nM
LOX IMVI melanoma
  TGI: 204 nM and 28.7 nM
HT29 colon
  GI50: 19.9 nM
  TGI: 148 nM
EKVX NSCLC
  GI50: 85.5 nM and 19.9 nM
  TGI: 616 nM and 72 nM
MDA-MB-435
  GI50: 64.9 nM and 26.7 nM
  TGI: 374 nM and 352 nM and 133 nM
NCI/ADR-RES ovarian
  GI50: 325 nM and 58.6 nM
  TGI: 25000 nM and 8210 nM
CCRF-CEM leukemia
  GI50: 3.01 nM
HCC-2998 colon
  GI50: 75 nM and 23.9 nM
  TGI: 277 nM and 500 nM and 104 nM
BT-549 breast
  GI50: 117 nM and 26.2 nM
  TGI: 734 nM and 1320 nM and 210 nM
KM12 colon
  GI50: 46 nM and 17.9 nM
  TGI: 2640 nM and 294 nM
U251 CNS
  GI50: 7.72 nM
  TGI: 710 nM and 2600 nM
OVCAR-4 ovarian
  GI50: 104 nM
  TGI: 5220 nM
T-47D breast
  GI50: 69.7 nM
MALME-3M melanoma
  GI50: 15.9 nM
  TGI: 197 nM and 80.9 nM
SK-MEL-2 melanoma
  GI50: 23 nM
  TGI: 112 nM and 67 nM
